Reference: patent US20250313604A1, “PEPTIDE PHARMACEUTICALS FOR INSULIN RESISTANCE” (Mederis Diabetes LLC, priority 2014, published 2025)
Like-named read-outs stand apart in the source and are kept apart here.

What was measured:
glucagon R = biological target: T1, glucagon R (Homo sapiens, UniProt P47871); experiment: DiscoveRx LeadHunter cellular assay, cAMP stimulation, glucagon receptor; format: cell-based; settings: human receptor cloned into CHO cells
T1 construct: host or cells: CHO cells
T1 sequence (P47871 26-477): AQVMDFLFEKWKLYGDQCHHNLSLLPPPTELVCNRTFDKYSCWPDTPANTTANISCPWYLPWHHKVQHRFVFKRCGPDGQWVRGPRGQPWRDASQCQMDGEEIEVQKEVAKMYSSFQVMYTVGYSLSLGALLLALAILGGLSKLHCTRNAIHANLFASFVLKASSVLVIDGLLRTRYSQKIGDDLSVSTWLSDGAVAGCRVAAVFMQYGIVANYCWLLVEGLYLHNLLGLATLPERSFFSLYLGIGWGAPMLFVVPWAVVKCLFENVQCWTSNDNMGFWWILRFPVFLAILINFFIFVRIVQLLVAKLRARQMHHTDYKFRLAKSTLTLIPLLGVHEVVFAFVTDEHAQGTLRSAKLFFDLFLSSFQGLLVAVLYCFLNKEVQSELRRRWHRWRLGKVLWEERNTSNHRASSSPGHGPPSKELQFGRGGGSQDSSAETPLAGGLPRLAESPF
Description: (§1) A further series of cellular assays were carried out using standard cellular assays (DiscoveRx, LeadHunter assays) using readout of cAMP stimulation or arrestin activation. Compounds were weighed precisely in an amount of approximately 1 mg and shipped to DiscoveRx for dilution and assay.

GLP-1 R = biological target: T2, GLP-1 R (Homo sapiens, UniProt P43220); experiment: DiscoveRx LeadHunter cellular assay, cAMP stimulation, GLP-1 receptor; format: cell-based; settings: human receptor cloned into CHO cells
T2 construct: host or cells: CHO cells
T2 sequence (P43220 24-463): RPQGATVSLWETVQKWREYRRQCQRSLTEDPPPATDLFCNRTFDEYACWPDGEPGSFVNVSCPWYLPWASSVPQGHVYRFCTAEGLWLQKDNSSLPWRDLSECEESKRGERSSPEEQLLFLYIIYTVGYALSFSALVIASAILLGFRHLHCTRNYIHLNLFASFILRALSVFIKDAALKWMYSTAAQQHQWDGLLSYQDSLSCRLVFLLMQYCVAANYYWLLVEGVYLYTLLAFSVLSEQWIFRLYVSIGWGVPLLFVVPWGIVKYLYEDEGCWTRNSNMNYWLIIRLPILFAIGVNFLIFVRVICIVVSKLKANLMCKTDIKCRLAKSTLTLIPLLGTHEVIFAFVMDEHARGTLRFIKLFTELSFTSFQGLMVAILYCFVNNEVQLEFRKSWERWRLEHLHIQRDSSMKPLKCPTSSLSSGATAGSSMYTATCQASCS
Description: as §1

DIO mice = experiment: In vivo assay in DIO mice (OGTT, insulin, body weight, NMR body composition)
Description: Fifty (50) diet induced obese (DIO) C57BL/6J male mice were received from JAX labs at 6 wks of age. The mice were ear notched for identification and housed […] in positively ventilated polycarbonate cages with HEPA filtered air at a density of 5 mice per cage. The animal room was lit entirely with artificial fluorescent lighting, with a controlled 12 h light/dark cycle. The normal temperature and relative humidity ranges in the animal rooms were 22±4° C. and 50±15%, respectively. Filtered tap water, acidified to a pH of 2.8 to 3.1, and high fat diet (Research Diets D12492; 60 kcal %) was provided ad libitum.
Following a 2 week acclimation, 50 mice were randomized into groups (n=10) as below. Group 1. Vehicle treated; Group 2. Low dose EU-A994; Group 3. high dose EU-A594; Group 4. low dose EU-A1024; Group 5. high dose EU-A1024. Mice were dosed via SC on days 1 (0, 7 hrs.), 3, 6, 9, 12, 15, 18, 21, 24. Body weights and cage side observations were recorded daily. Food and water intake was recorded weekly. Mice underwent NMR measurements for determining whole body fat and lean composition on days 1 (pre-dose) and 26. On day 26, mice were fasted overnight for an oral glucose tolerance test. Next day, the first blood sample was collected via tail nick (t=0). Mice were then administered a bolus of 1.0 g/kg glucose. Blood samples were obtained via tail nick at 0, 15, 30, 60, 90 and 120 min after glucose and plasma glucose was immediately determined using a glucometer.
Sacrifice and tissue collection: Mice were sacrificed on day 28. Terminal blood was processed to serum/plasma and aliquots were sent for analysis of glucose, insulin and lipid profile. Body composition was determined by NMR.

[1] = Plasma protease stability; format: in vitro ADME; settings: incubation at 30 degC, t=0-8 hrs, LC-MS (FIG. 8)
Description: Standard and QC Sample Preparation: i. […] Make standard working solutions in 50% CH3CN with the stock solution. […] Spiked 10 μL of the working solutions into 90 μL blank plasma and vortex them, iv. […] Transfer the supernatant into an HPLC injection plate for loading on the HPLC column, vi.

SMILES | EC50 (glucagon R; read-out: EC50 cAMP glucagon R) | EC50 (GLP-1 R) | EC50 (glucagon R) | also measured
CCCCCCCCCCCCO[C@@H]1O[C@H](CO[C@H]2O[C@H](C(=O)NCCCC[C@H](NC(=O)[C@@H](NC(=O)[C@H](Cc3ccccc3)NC(=O)[C@H](CCC(=O)O)NC(=O)[C@@H]3CCCCNC(=O)CC[C@H](NC(=O)[C@H](CC(=O)O)NC(=O)[C@H](CC(C)C)NC(=O)[C@H](Cc4ccc(O)cc4)NC(=O)[C@H](CCCCN)NC(=O)[C@H](CO)NC(=O)[C@H](Cc4ccc(O)cc4)NC(=O)[C@H](CC(=O)O)NC(=O)[C@H](CO)NC(=O)[C@@H](NC(=O)[C@H](Cc4ccccc4)NC(=O)[C@@H](NC(=O)CNC(=O)[C@H](CCC(N)=O)NC(=O)C(C)(C)NC(=O)[C@@H](N)Cc4c[nH]cn4)[C@@H](C)O)[C@@H](C)O)C(=O)N[C@@H](CCC(N)=O)C(=O)N[C@@H](C)C(=O)N[C@@H](C)C(=O)N3)[C@@H](C)CC)C(=O)N[C@@H](Cc3c[nH]c4ccccc34)C(=O)N[C@@H](CC(C)C)C(=O)N[C@@H](CC(C)C)C(=O)N[C@@H](CCC(N)=O)C(=O)N[C@H](C(=O)NCCOCCOCCOCCOCCC(=O)O)[C@@H](C)O)[C@H](O)[C@H](O)[C@H]2O)[C@@H](O)[C@H](O)[C@H]1O [EU-A1639] | 2.29 nM | 0.385 nM | – | –
CCCCCCCCCCCCCCO[C@@H]1O[C@H](CO[C@H]2O[C@H](C(=O)NCCCC[C@H](NC(=O)[C@@H](NC(=O)[C@H](Cc3ccccc3)NC(=O)[C@H](CCC(=O)O)NC(=O)[C@@H]3CCCCNC(=O)CC[C@H](NC(=O)[C@H](CC(=O)O)NC(=O)[C@H](CC(C)C)NC(=O)[C@H](Cc4ccc(O)cc4)NC(=O)[C@H](CCCCN)NC(=O)[C@H](CO)NC(=O)[C@H](Cc4ccc(O)cc4)NC(=O)[C@H](CC(=O)O)NC(=O)[C@H](CO)NC(=O)[C@@H](NC(=O)[C@H](Cc4ccccc4)NC(=O)[C@@H](NC(=O)CNC(=O)[C@H](CCC(N)=O)NC(=O)C(C)(C)NC(=O)[C@@H](N)Cc4c[nH]cn4)[C@@H](C)O)[C@@H](C)O)C(=O)N[C@@H](CCC(N)=O)C(=O)N[C@@H](C)C(=O)N[C@@H](C)C(=O)N3)[C@@H](C)CC)C(=O)N[C@@H](Cc3c[nH]c4ccccc34)C(=O)N[C@@H](CC(C)C)C(=O)N[C@@H](CC(C)C)C(=O)N[C@@H](CCC(N)=O)C(=O)N[C@H](C(N)=O)[C@@H](C)O)[C@H](O)[C@H](O)[C@H]2O)[C@@H](O)[C@H](O)[C@H]1O [EU-A1024, His1-Aib2-Gln3-Gly4-Thr5-Phe6-Thr7-Ser8-Asp9-Tyr10-Ser11-Lys12-Tyr13-Leu14-Asp15-Glu*16-Gln17 Ala18-Ala19-Lys*20-Glu21-Phe22-Ile23-Lys (N-omega (1-tetradecyl beta-D-melibiouronyl)) 24-Trp25-Leu26-Leu27-Gln28-Thr29-NH2] | – | – | – | fat mass (DIO mice; NMR (FIG. 11)): decreased fat mass; lean mass (DIO mice; NMR (FIG. 11)): minimal effects on lean mass; basal insulin secretion (DIO mice; SC dosing days 1-24): decreased basal insulin secretion; glucose-dependent insulin secretion (DIO mice; SC dosing days 1-24): potentiated glucose-dependent insulin secretion; weight gain (DIO mice; SC dosing days 1-24 (FIG. 10)): decreased weight gain; glucose excursion in the OGTT (DIO mice; SC dosing days 1-24, OGTT 1.0 g/kg glucose): decreased glucose excursion
CC[C@H](C)[C@H](NC(=O)[C@H](Cc1ccccc1)NC(=O)[C@H](CCC(=O)O)NC(=O)[C@H](CCCCN)NC(=O)[C@H](C)NC(=O)[C@H](C)NC(=O)[C@H](CCC(N)=O)NC(=O)CNC(=O)[C@H](CCC(=O)O)NC(=O)[C@H](CC(C)C)NC(=O)[C@H](Cc1ccc(O)cc1)NC(=O)[C@H](CO)NC(=O)[C@H](CO)NC(=O)[C@@H](NC(=O)[C@H](CC(=O)O)NC(=O)[C@H](CO)NC(=O)[C@@H](NC(=O)[C@H](Cc1ccccc1)NC(=O)[C@@H](NC(=O)CNC(=O)[C@H](CCC(=O)O)NC(=O)[C@H](C)NC(=O)[C@@H](N)Cc1c[nH]cn1)[C@@H](C)O)[C@@H](C)O)C(C)C)C(=O)N[C@@H](C)C(=O)N[C@@H](Cc1c[nH]c2ccccc12)C(=O)N[C@@H](CC(C)C)C(=O)N[C@H](C(=O)N[C@@H](CCCCN)C(=O)NCC(=O)N[C@@H](CCCNC(=N)N)C(N)=O)C(C)C [GIP-1 (7-36), reference compound] | – | – | – | amount of intact compound in the human plasma versus time [1]: rapid decrease
CCCCCCCCCCCCCCCCCCO[C@H]1O[C@H](CO[C@H]2O[C@H](C(=O)NCCCC[C@@H]3NC(=O)[C@@H](NC(=O)[C@H](CC(=O)O)NC(=O)[C@H](CC(C)C)NC(=O)[C@H](Cc4ccc(O)cc4)NC(=O)[C@H](CCCCN)NC(=O)[C@H](CO)NC(=O)[C@H](Cc4ccc(O)cc4)NC(=O)[C@H](CC(=O)O)NC(=O)[C@H](CO)NC(=O)[C@@H](NC(=O)[C@H](Cc4ccccc4)NC(=O)[C@@H](NC(=O)CNC(=O)[C@H](CCC(N)=O)NC(=O)C(C)(C)NC(=O)[C@@H](N)Cc4c[nH]cn4)[C@@H](C)O)[C@@H](C)O)CCC(=O)NCCCC[C@@H](C(=O)N[C@@H](CCC(=O)O)C(=O)N[C@@H](Cc4ccccc4)C(=O)N[C@H](C(=O)N[C@@H](CCC(N)=O)C(=O)N[C@@H](Cc4c[nH]c5ccccc45)C(=O)N[C@@H](CC(C)C)C(=O)N[C@@H](CC(C)C)C(=O)N[C@@H](CCC(N)=O)C(=O)N[C@H](C(N)=O)[C@@H](C)O)[C@@H](C)CC)NC(=O)[C@H](C)NC(=O)[C@H](C)NC3=O)[C@H](O)[C@H](O)[C@H]2O)[C@@H](O)[C@H](O)[C@H]1O [EU-A1589, His1-Aib2-Gln3-Gly4-Thr5-Phe6-Thr7-Ser8-Asp9-Tyr10-Ser11-Lys12-Tyr13-Leu14-Asp15-Glu*16Lys (N-omega (1-octadecyl alpha-D-melibiouronyl)) 17 Ala18-Ala19-Lys*20-Glu21-Phe22-Ile23-Gln24-Trp25-Leu26-Leu27-Gln28-Thr29-NH2] | – | 0.236 nM | 0.655 nM | –
CCCCCCCCCCCCCCO[C@H]1O[C@H](CO[C@H]2O[C@H](C(=O)NCCCC[C@@H]3NC(=O)[C@@H](NC(=O)[C@H](CC(=O)O)NC(=O)[C@H](CC(C)C)NC(=O)[C@H](Cc4ccc(O)cc4)NC(=O)[C@H](CCCCN)NC(=O)[C@H](CO)NC(=O)[C@H](Cc4ccc(O)cc4)NC(=O)[C@H](CC(=O)O)NC(=O)[C@H](CO)NC(=O)[C@@H](NC(=O)[C@H](Cc4ccccc4)NC(=O)[C@@H](NC(=O)CNC(=O)[C@H](CCC(N)=O)NC(=O)C(C)(C)NC(=O)[C@@H](N)Cc4c[nH]cn4)[C@@H](C)O)[C@@H](C)O)CCC(=O)NCCCC[C@@H](C(=O)N[C@@H](CCC(=O)O)C(=O)N[C@@H](Cc4ccccc4)C(=O)N[C@H](C(=O)N[C@@H](CCC(N)=O)C(=O)N[C@@H](Cc4c[nH]c5ccccc45)C(=O)N[C@@H](CC(C)C)C(=O)N[C@@H](CC(C)C)C(=O)N[C@@H](CCC(N)=O)C(=O)N[C@H](C(N)=O)[C@@H](C)O)[C@@H](C)CC)NC(=O)[C@H](C)NC(=O)[C@H](C)NC3=O)[C@H](O)[C@H](O)[C@H]2O)[C@@H](O)[C@H](O)[C@H]1O [EU-A1587, His1-Aib2-Gln3-Gly4-Thr5-Phe6-Thr7-Ser8-Asp9-Tyr10-Ser11-Lys12-Tyr13-Leu14-Asp15-Glu*16-Lys (N-omega (1-tetradecyl alpha-D-melibiouronyl)) 17 Ala18-Ala19-Lys*20-Glu21-Phe22-Ile23-Gln24-Trp25-Leu26-Leu27-Gln28-Thr29-NH2] | – | 0.081 nM | 0.253 nM | –
CCCCCCCCCCCCO[C@@H]1O[C@H](CO[C@H]2O[C@H](C(=O)NCCCC[C@H](NC(=O)[C@@H](NC(=O)[C@H](Cc3ccccc3)NC(=O)[C@H](CCC(=O)O)NC(=O)[C@@H]3CCCCNC(=O)CC[C@H](NC(=O)[C@H](CC(=O)O)NC(=O)[C@H](CC(C)C)NC(=O)[C@H](Cc4ccc(O)cc4)NC(=O)[C@H](CCCCN)NC(=O)[C@H](CO)NC(=O)[C@H](Cc4ccc(O)cc4)NC(=O)[C@H](CC(=O)O)NC(=O)[C@H](CO)NC(=O)[C@@H](NC(=O)[C@H](Cc4ccccc4)NC(=O)[C@@H](NC(=O)CNC(=O)[C@H](CCC(N)=O)NC(=O)C(C)(C)NC(=O)[C@@H](N)Cc4c[nH]cn4)[C@@H](C)O)[C@@H](C)O)C(=O)N[C@@H](CCC(N)=O)C(=O)N[C@@H](C)C(=O)N[C@@H](C)C(=O)N3)[C@@H](C)CC)C(=O)N[C@@H](Cc3c[nH]c4ccccc34)C(=O)N[C@@H](CC(C)C)C(=O)N[C@@H](CC(C)C)C(=O)N[C@@H](CCC(N)=O)C(=O)N[C@H](C(=O)NCCOCCOCCOCCOCCOCCOCCOCCOCCC(=O)O)[C@@H](C)O)[C@H](O)[C@H](O)[C@H]2O)[C@@H](O)[C@H](O)[C@H]1O [EU-A1651] | 0.149 nM | 0.033 nM | – | –
